# Laboratory results taken from US4055715A, “Method of producing 1-N-[L-(-)-α-hydroxy-γ-aminobutyryl]XK-62-2” (Abbott Laboratories, priority 1974, dated 1977).
# Where two headings read alike, the source gives them in different places.
# Legend:
# [1] = test system: Pseudomonas aeruginosa BMH 1; assay: Agar-dilution MIC, pH 8.0 (Table 1); type: cell-based
# [2] = test system: Staphylococcus aureus ATCC 6538P; assay: Agar-dilution MIC, pH 8.0 (Table 1); type: cell-based; details: ATCC6538P
# [3] = test system: Bacillus subtilis No. 10707; assay: Agar-dilution MIC, pH 8.0 (Table 1); type: cell-based
# [4] = test system: Proteus vulgaris ATCC 6897; assay: microbe, parasite or virus in culture; type: cell-based
# [5] = test system: Shigella sonnei ATCC 9290; assay: microbe, parasite or virus in culture; type: cell-based
# [6] = test system: Salmonella typhosa ATCC 9992; assay: Agar-dilution MIC, pH 8.0 (Table 1); type: cell-based; details: Salmonella enterica, pH 8, read-out: Minimum Inhibitory Concentration
# [7] = test system: Krebsiella pneumoniae ATCC 10031; assay: Agar-dilution MIC, pH 8.0 (Table 1); type: cell-based; details: Klebsiella pneumoniae
# [8] = test system: Escherichia coli ATCC 26; assay: Agar-dilution MIC, pH 8.0 (Table 1); type: cell-based
# [9] = test system: Escherichia coli KY 8327; assay: Agar-dilution MIC, pH 8.0 (Table 1); type: cell-based; details: Escherichia coli, KY8327; E. coli KY 8327, produces gentamicin adenyltransferase; agar-dilution, pH 8.0; read-out: Minimum Inhibitory Concentration
# Text: (§1) The former bacterium inactivates kanamycins and gentamicins by adenylation, and the latter inactivates gentamicins by acetylation.
# [10] = test system: Escherichia coli KY 8348; assay: Agar-dilution MIC, pH 8.0 (Table 1); type: cell-based; details: Escherichia coli, KY8348; E. coli KY 8348, produces gentamicin acetyltransferase Type I; agar-dilution, pH 8.0; read-out: Minimum Inhibitory Concentration
# Text: as §1
# [11] = test system: Staphylococcus aureus 209 P; assay: Agar dilution MIC, pH 7.2 (Table 2); type: cell-based; details: pH 7.2, read-out: Minimum Inhibitory Concentration
# [12] = test system: Staphylococcus aureus Smith; assay: Agar dilution MIC, pH 7.2 (Table 2); type: cell-based; details: pH 7.2, read-out: Minimum Inhibitory Concentration
# [13] = test system: Bacillus subtilis ATCC 6633; assay: Agar dilution MIC, pH 7.2 (Table 2); type: cell-based
# [14] = test system: Sarcina lutea ATCC 9341; assay: Agar dilution MIC, pH 7.2 (Table 2); type: cell-based; details: Micrococcus luteus
# [15] = test system: Escherichia coli T-2; assay: Agar dilution MIC, pH 7.2 (Table 2); type: cell-based
# [16] = test system: Escherichia coli T-5; assay: Agar dilution MIC, pH 7.2 (Table 2); type: cell-based
# [17] = test system: Escherichia coli KY 8327; assay: Agar dilution MIC, pH 7.2 (Table 2); type: cell-based; details: KY8327, E. coli KY 8327, read-out: Minimum Inhibitory Concentration
# [18] = test system: Escherichia coli KY 8321; assay: Agar dilution MIC, pH 7.2 (Table 2); type: cell-based
# [19] = test system: Escherichia coli KY 8349; assay: Agar dilution MIC, pH 7.2 (Table 2); type: cell-based; details: KY8349, E. coli KY 8349, produces neomycin-kanamycin phosphotransferase Type I, read-out: Minimum Inhibitory Concentration
# [20] = test system: Pseudomonas aeruginosa BMH 1; assay: Agar dilution MIC, pH 7.2 (Table 2); type: cell-based
# [21] = test system: Pseudomonas aeruginosa KY 8510; assay: Agar dilution MIC, pH 7.2 (Table 2); type: cell-based
# [22] = test system: Pseudomonas aeruginosa KY 8511; assay: Agar dilution MIC, pH 7.2 (Table 2); type: cell-based
# [23] = test system: Pseudomonas aeruginosa KY 8512; assay: Agar dilution MIC, pH 7.2 (Table 2); type: cell-based
# [24] = test system: Pseudomonas aeruginosa KY 8516; assay: Agar dilution MIC, pH 7.2 (Table 2); type: cell-based
# [25] = test system: Providencia sp. 164; assay: Agar dilution MIC, pH 7.2 (Table 2); type: cell-based; details: Providencia sp. 164, produces gentamicin acetyltransferase Type II, read-out: Minimum Inhibitory Concentration
# [26] = test system: Klebsiella pneumoniae No. 8045; assay: Agar dilution MIC, pH 7.2 (Table 2); type: cell-based
# [27] = test system: Proteus mirabilis 1287; assay: Agar dilution MIC, pH 7.2 (Table 2); type: cell-based
# [28] = test system: Proteus vulgaris 6897; assay: Agar dilution MIC, pH 7.2 (Table 2); type: cell-based
# [29] = test system: Proteus morganii KY 4298; assay: Agar dilution MIC, pH 7.2 (Table 2); type: cell-based; details: Morganella morganii
# [30] = test system: Escherichia coli KY 8348; assay: Agar dilution MIC, pH 7.2 (Table 2); type: cell-based; details: KY8348, E. coli KY 8348, produces gentamicin acetyltransferase Type I, read-out: Minimum Inhibitory Concentration
# [31] = test system: Proteus rettgeri KY 4288; assay: Agar dilution MIC, pH 7.2 (Table 2); type: cell-based; details: Providencia rettgeri, KY4288, P. rettgeri KY 4288, read-out: Minimum Inhibitory Concentration
# [32] = Acute toxicity in mice, intravenous injection; details: mouse, in vivo
compound,measurement,setting,value
"NC[C@H]1O[C@H](O[C@H]2[C@H](O)[C@@H](O[C@H]3O[C@H](CO)[C@@H](O)[C@H](N)[C@H]3O)[C@H](N)C[C@@H]2N)[C@H](O)[C@@H](O)[C@@H]1O [Kanamycin A, kanamycin A]",MIC,"[1]; BMH1, pH 8, read-out: Minimum Inhibitory Concentration",5.2 µg/mL
same,MIC,"[2]; pH 8, read-out: Minimum Inhibitory Concentration",0.021 µg/mL
same,MIC,"[3]; NO.10707, pH 8, read-out: Minimum Inhibitory Concentration",0.021 µg/mL
same,MIC,"[4]; ATCC6897, pH 8, read-out: Minimum Inhibitory Concentration",0.16 µg/mL
same,MIC,"[5]; ATCC9290, pH 8, read-out: Minimum Inhibitory Concentration",0.16 µg/mL
same,MIC,[6],0.088 µg/mL
same,MIC,"[7]; ATCC10031, pH 8, read-out: Minimum Inhibitory Concentration",0.042 µg/mL
same,MIC,"[8]; ATCC26, pH 8, read-out: Minimum Inhibitory Concentration",0.16 µg/mL
same,MIC,[9],1.04 µg/mL
same,MIC,[10],0.041 µg/mL
same,MIC,[11]; 209P,0.2 µg/mL
same,MIC,[12],0.2 µg/mL
same,MIC,"[13]; ATCC6633, pH 7.2, read-out: Minimum Inhibitory Concentration",0.2 µg/mL
same,MIC,"[14]; ATCC9341, pH 7.2, read-out: Minimum Inhibitory Concentration",6.25 µg/mL
same,MIC,"[15]; T2, pH 7.2, read-out: Minimum Inhibitory Concentration",1.56 µg/mL
same,MIC,"[16]; T5, pH 7.2, read-out: Minimum Inhibitory Concentration",1.56 µg/mL
same,MIC,[17],50 µg/mL
same,MIC,"[18]; KY8321, pH 7.2, read-out: Minimum Inhibitory Concentration",100 µg/mL
same,MIC,[19],> 100 µg/mL
same,MIC,"[20]; BMH1, pH 7.2, read-out: Minimum Inhibitory Concentration",12.5 µg/mL
same,MIC,"[21]; KY8510, pH 7.2, read-out: Minimum Inhibitory Concentration",100 µg/mL
same,MIC,"[22]; KY8511, pH 7.2, read-out: Minimum Inhibitory Concentration",100 µg/mL
same,MIC,"[23]; KY8512, pH 7.2, read-out: Minimum Inhibitory Concentration",12.5 µg/mL
same,MIC,"[24]; KY8516, pH 7.2, read-out: Minimum Inhibitory Concentration",> 100 µg/mL
same,MIC,[25],> 100 µg/mL
same,MIC,"[26]; NO.8045, pH 7.2, read-out: Minimum Inhibitory Concentration",0.4 µg/mL
same,MIC,"[27]; Proteus mirabilis, 1287, pH 7.2, read-out: Minimum Inhibitory Concentration",6.25 µg/mL
same,MIC,"[28]; Proteus vulgaris, 6897, pH 7.2, read-out: Minimum Inhibitory Concentration",3.12 µg/mL
same,MIC,"[29]; KY4298, pH 7.2, read-out: Minimum Inhibitory Concentration",1.56 µg/mL
CNC[C@@H]1CC[C@@H](N)[C@@H](O[C@H]2[C@H](O)[C@@H](O[C@H]3OC[C@](C)(O)[C@H](NC)[C@H]3O)[C@H](N)C[C@@H]2N)O1 [XK-62-2],MIC,"[1]; BMH1, P. aeruginosa BMH 1, agar-dilution, pH 8.0, read-out: Minimum Inhibitory Concentration",0.52 µg/mL
same,MIC,"[2]; S. aureus ATCC 6538P, agar-dilution, pH 8.0, read-out: Minimum Inhibitory Concentration",0.088 µg/mL
same,MIC,"[3]; B. subtilis No. 10707, agar-dilution, pH 8.0, read-out: Minimum Inhibitory Concentration",0.044 µg/mL
same,MIC,"[4]; ATCC6897, P. vulgaris ATCC 6897, agar-dilution, pH 8.0, read-out: Minimum Inhibitory Concentration",0.033 µg/mL
same,MIC,"[5]; ATCC9290, S. sonnei ATCC 9290, agar-dilution, pH 8.0, read-out: Minimum Inhibitory Concentration",0.033 µg/mL
same,MIC,[6],0.008 µg/mL
same,MIC,"[7]; ATCC10031, K. pneumoniae ATCC 10031, agar-dilution, pH 8.0, read-out: Minimum Inhibitory Concentration",0.004 µg/mL
same,MIC,"[8]; ATCC26, E. coli ATCC 26, agar-dilution, pH 8.0, read-out: Minimum Inhibitory Concentration",0.016 µg/mL
same,MIC,[9],1.04 µg/mL
same,MIC,[10],1.04 µg/mL
same,MIC,"[11]; S. aureus 209 P, agar dilution",0.1 µg/mL
same,MIC,"[12]; S. aureus Smith, agar dilution",< 0.05 µg/mL
same,MIC,"[13]; ATCC6633, B. subtilis ATCC 6633, agar dilution, pH 7.2, read-out: Minimum Inhibitory Concentration",< 0.05 µg/mL
same,MIC,"[14]; ATCC9341, Sarcina lutea ATCC 9341, agar dilution, pH 7.2, read-out: Minimum Inhibitory Concentration",0.4 µg/mL
same,MIC,"[15]; T2, E. coli T-2, agar dilution, pH 7.2, read-out: Minimum Inhibitory Concentration",0.4 µg/mL
same,MIC,"[16]; T5, E. coli T-5, agar dilution, pH 7.2, read-out: Minimum Inhibitory Concentration",0.4 µg/mL
same,MIC,[17],12.5 µg/mL
same,MIC,"[18]; KY8321, E. coli KY 8321, produces gentamicin adenyltransferase and neomycin-kanamycin phosphotransferase Type II, agar dilution, pH 7.2, read-out: Minimum Inhibitory Concentration",3.12 µg/mL
same,MIC,[30],12.5 µg/mL
same,MIC,[19],0.4 µg/mL
same,MIC,"[20]; BMH1, P. aeruginosa BMH 1, agar dilution, pH 7.2, read-out: Minimum Inhibitory Concentration",0.78 µg/mL
same,MIC,"[21]; KY8510, P. aeruginosa KY 8510, produces kanamycin acetyltransferase, agar dilution, pH 7.2, read-out: Minimum Inhibitory Concentration",1.56 µg/mL
same,MIC,"[22]; KY8511, P. aeruginosa KY 8511, produces gentamicin acetyltransferase Type I and neomycin-kanamycin phosphotransferase Type I, agar dilution, pH 7.2, read-out: Minimum Inhibitory Concentration",100 µg/mL
same,MIC,"[23]; KY8512, P. aeruginosa KY 8512, produces neomycin-kanamycin phosphotransferase Type I and II and streptomycin phosphotransferase, agar dilution, pH 7.2, read-out: Minimum Inhibitory Concentration",0.78 µg/mL
same,MIC,"[24]; KY8516, P. aeruginosa KY 8516, probably produces kanamycin acetyltransferase, agar dilution, pH 7.2, read-out: Minimum Inhibitory Concentration",3.12 µg/mL
same,MIC,[25],100 µg/mL
same,MIC,"[26]; K. pneumoniae No. 8045, agar dilution, pH 7.2, read-out: Minimum Inhibitory Concentration",0.1 µg/mL
same,MIC,"[27]; Proteus mirabilis, P. mirabilis 1287, agar dilution, pH 7.2, read-out: Minimum Inhibitory Concentration",0.78 µg/mL
same,MIC,"[28]; Proteus vulgaris, P. vulgaris 6897, agar dilution, pH 7.2, read-out: Minimum Inhibitory Concentration",0.78 µg/mL
same,MIC,[31],0.4 µg/mL
same,MIC,"[29]; KY4298, P. morganii KY 4298, agar dilution, pH 7.2, read-out: Minimum Inhibitory Concentration",0.4 µg/mL
same,LD50,[32],93 mg/kg
